Results: paper PMC8637766, “A mixed chirality α-helix in a stapled bicyclic and a linear antimicrobial peptide revealed by X-ray crystallography” (RSC Chemical Biology, 2021)
Values after ≈ are worked out from the molar mass of the structure shown. Square brackets hold non-standard residues; d marks the D form. Ends that are not written are not given here. Peptide text beside a SMILES is read from it. * marks the point of attachment. Benzoyl(4-Me) = Cc1ccc(C(=O)*)cc1

Key:
[1] = Lipid vesicle leakage assay, 5(6)-carboxyfluorescein release; details: 10 μg mL^−1 compound, leakage at 250 s; 10 mM TRIS, 107 mM NaCl, pH 7.4, 25 °C; carboxyfluorescein fluorescence, Triton X-100 = full release
Procedure: 4 Lipid Vesicle Leakage assays
5(6)-carboxyfluorescein (CF) was purchased from Sigma. Egg Yolk Phosphatidylcholine (EYPC),
Egg Yolk Phosphatidylglycerol (EYPG) and a Mini-Extruder were purchased from Avanti Polar
Lipids. Egg PC or Egg PG thin lipid layers were prepared by evaporating a solution of 100 mg EYPC
or EYPG in 4 mL MeOH/CHCl3 (1:1) on a rotary evaporator at room temperature and then dried in
vacuo overnight. The resulting film was then hydrated with 4 mL CF buffer (50 mM CF, 10 mM
TRIS, 107 mM NaCl, pH 7.4) for 30 min, subjected to freeze-thaw cycles (7×) and extrusion (15×)
through a polycarbonate membrane (pore size 100 nm). Extra vesicular components were removed
by gel filtration (Sephadex G-50) with 10 mM TRIS, 107 mM NaCl, pH 7.4 buffer. Final conditions:
~ 2.5 mM PC or PG; inside: 50 mM CF, 10 mM TRIS, 10 mM NaCl, pH 7.4 buffer; outside: 10 mM
TRIS, 107 mM NaCl, pH 7.4. PC or PG stock solutions (37.5 µL) were diluted to 3000 µL with a
buffer (10 mM TRIS, 107 mM NaCl, pH 7.4) in a thermostated fluorescence cuvette (25 °C) and
gently stirred (final lipid concentration ~31 µM). CF efflux was monitored at λem 517 nm (λex 492
nm) as a function of time after addition of the desired volume of peptide (1 or 20 mg/mL stock in mQ
water) at t = 45 s. The following final concentrations of peptide were monitored: 5, 10, 15, 20, 25 and
200 µg/mL. Finally, 30 µL of 1.2% Triton X -100 was added to the cuvette (0.012% final
concentration) at t = 285 s to reach the maximum intensity. Fluorescence intensities were then
Figure S1: Vesicle leakage experiments using 5(6)-carboxyfluorescein induced by peptides. EYPG and EYPC vesicles
were suspended in buffer (10 mM TRIS, 107 mM NaCl, pH 7.4) and the indicated concentration of the compound was
added after 45 sec. After 285 seconds 30 μL Triton X-100 1.2% was added for full release of fluorescein. […]

P. aeruginosa ZEM9A = type: cell-based, Pseudomonas aeruginosa
Procedure: (§1) Bicyclic and linear peptides cytotoxicity was assayed against P. aeruginosa PAO1, P. aeruginosa ZEM-1A, P. aeruginosa ZEM9A, K. pneumoniae Oxa-48, E. coli W3110, A. baumannii BAL225, S. aureus Newman, S. aureus COL (clinical isolate of MRSA) , B. Subtilis BR151.
(§2) To determine the Minimal Inhibitory Concentration (MIC), Broth Microdilution method was used . 2 A colony of bacteria from glycerol stock was grown in LB medium overnight at 37 °C and 180 rpm shaking. The compounds were prepared as stock solutions of 8 mg/mL in sterilized milliQ deionized water, added to the first well of 96 -well sterile, polypropylene round bottom microtiter plates (TPP, untreated) and diluted serially by ½. The concentration of the bacteria was quantified by measuring absorbance at 600 nm and diluted to an OD 600 of 0.022 in MH medium. The sample solutions (150 µL) were mixed with 4 µL diluted bacterial suspension with a final inoculation of about 5×10^5 CFU.
(§3) For each test, two columns of the plate were kept for sterility control (MH medium only), growth control (MH medium with bacterial inoculum, no compound). The positive control, Polymyxin B (starting with a concentration of 64 µg/mL) in MH medium with bacterial inoculums, was introduced in the two first lines of the plate. The plates were incubated at 37 °C for ~18 hours under static conditions. 15 μL of 3-(4,5-dimethylthiazol-2-yl)-2,5-diphenyltetrazolium bromide (MTT)3 (1 mg/mL in sterilized milliQ deionized water) were added to each well and the plates were incubated for 20-30 minutes at room temperature. The minimal inhibitory concentration (MIC) was defined as the lowest concentration of the dendrimer that inhibits the visible growth of the tested bacteria (yellow) with the unaided eye.

P. aeruginosa ZEM-1A = type: cell-based, Pseudomonas aeruginosa
Procedure: as §1, §2, §3

P. aeruginosa PAO1 = type: cell-based, Pseudomonas aeruginosa
Procedure: as §1, §2, §3

E. coli W3110 = type: cell-based
Procedure: as §1, §2, §3

A. baumannii BAL225 = type: cell-based
Procedure: as §1, §2, §3

S. aureus Newman = type: cell-based
Procedure: as §1, §2, §3

K. pneumoniae Oxa-48 = type: cell-based
Procedure: as §1, §2, §3

[2] = tested on: S. aureus COL (clinical isolate of MRSA); type: cell-based
Procedure: as §1, §2, §3

B. subtilis BR151 = type: cell-based, Bacillus subtilis; details: BR151, 20 h
Procedure: as §1, §2
For each test, two columns of the plate were kept for sterility control (MH medium only), growth control (MH medium with bacterial inoculum, no compound). The positive control, Polymyxin B (starting with a concentration of 64 µg/mL) in MH medium with bacterial inoculums, was introduced in the two first lines of the plate. […]
conditions. 15 μL of 3-(4,5-dimethylthiazol-2-yl)-2,5-diphenyltetrazolium bromide (MTT)3 (1 mg/mL in sterilized milliQ deionized water) were added to each well and the plates were incubated for 20-30 minutes at room temperature. The minimal inhibitory concentration (MIC) was defined as the lowest concentration of the dendrimer that inhibits the visible growth of the tested bacteria (yellow) with the unaided eye.

Compound	EYPC vesicle leakage [1] [%]	EYPG vesicle leakage [1] [%]	MIC P. aeruginosa ZEM9A (P. aeruginosa ZEM9A) [µg/mL]	MIC P. aeruginosa ZEM-1A (P. aeruginosa ZEM-1A) [µg/mL]	MIC PAO1 (P. aeruginosa PAO1) [µg/mL]	MIC E. coli W3110 (E. coli W3110) [µg/mL]	MIC A. baumannii BAL225 (A. baumannii BAL225) [µg/mL]	MIC S. aureus Newman (S. aureus Newman) [µg/mL]	MIC K. pneumoniae Oxa-48 (K. pneumoniae Oxa-48) [µg/mL]	MIC S. aureus COL [2] [µg/mL]	MIC BR 151 (B. subtilis BR151) [µg/mL]
Cc1c2cc3cc1CSC[C@H](NC(=O)[C@H](CCCCN)NC(=O)[C@H](CC(C)C)NC(=O)[C@H](CC(C)C)NC(=O)[C@H](CCCCN)NC(=O)[C@H](CCCCN)NC3=O)C(=O)N[C@@H](CC(C)C)C(=O)N[C@@H](CCCCN)C(=O)N[C@H](C(=O)N[C@@H](CC(C)C)C(=O)N[C@@H](CC(C)C)C(N)=O)CSC2 [bp65] (HELM PEPTIDE1{K.K.L.L.K.C.L.K.C.L.L.[am]}|CHEM1{[Cc1c(C[*:2])cc(C(=O)[*:1])cc1C[*:3]]}$PEPTIDE1,CHEM1,1:R1-1:R1|PEPTIDE1,CHEM1,6:R3-1:R2|PEPTIDE1,CHEM1,9:R3-1:R3$$$V2.0)	37	34	>32	8 (≈ 5.54 µM)	8 (≈ 5.54 µM)	8 (≈ 5.54 µM)	4 (≈ 2.77 µM)	8 (≈ 5.54 µM)	16 (≈ 11.1 µM)	8 (≈ 5.54 µM)	2 (≈ 1.39 µM)
CC(C)C[C@H](NC(=O)[C@H](CC(C)C)NC(=O)[C@H](CC(C)C)NC(=O)[C@@H](CCCCN)NC(=O)[C@H](CC(C)C)NC(=O)[C@H](CC(C)C)NC(=O)[C@@H](CCCCN)NC(=O)[C@H](CC(C)C)NC(=O)[C@H](CC(C)C)NC(=O)[C@@H](CCCCN)NC(=O)[C@H](N)CCCCN)C(N)=O [ln69] (HELM PEPTIDE1{[dK].[dK].L.L.[dK].L.L.[dK].L.L.L.[am]}$$$$V2.0)			>32	8 (≈ 6.05 µM)	8 (≈ 6.05 µM)	4 (≈ 3.03 µM)	2 to 4	8 (≈ 6.05 µM)	8 (≈ 6.05 µM)	16 (≈ 12.1 µM)	
CSC[C@H](NC(=O)[C@H](CCCCN)NC(=O)[C@H](CC(C)C)NC(=O)[C@H](CSC)NC(=O)[C@H](CCCCN)NC(=O)[C@H](CC(C)C)NC(=O)[C@H](CC(C)C)NC(=O)[C@H](CCCCN)NC(=O)[C@H](CCCCN)NC(=O)c1ccc(C)cc1)C(=O)N[C@@H](CC(C)C)C(=O)N[C@@H](CC(C)C)C(N)=O [ln65b] ({Benzoyl(4-Me)}-KKLLKC(Me)LKC(Me)LL-NH2)			16 (≈ 11 µM)	4 (≈ 2.76 µM)	4 to 8	8 (≈ 5.52 µM)	4 (≈ 2.76 µM)	4 (≈ 2.76 µM)	8 (≈ 5.52 µM)	4 (≈ 2.76 µM)	
KKLLKLLKLLL-NH2 [ln65]			16	2 to 4	2 to 4	4	2 to 4	2 to 4	4	4	
CSC[C@H](NC(=O)[C@@H](CCCCN)NC(=O)[C@H](CC(C)C)NC(=O)[C@H](CSC)NC(=O)[C@@H](CCCCN)NC(=O)[C@H](CC(C)C)NC(=O)[C@H](CC(C)C)NC(=O)[C@@H](CCCCN)NC(=O)[C@@H](CCCCN)NC(=O)c1ccc(C)cc1)C(=O)N[C@@H](CC(C)C)C(=O)N[C@@H](CC(C)C)C(N)=O [ln69b] ({Benzoyl(4-Me)}-[dK][dK]LL[dK]C(Me)L[dK]C(Me)LL-NH2)			>32	8 (≈ 5.52 µM)	16 (≈ 11 µM)	8 (≈ 5.52 µM)	8 (≈ 5.52 µM)	32 (≈ 22.1 µM)	>32	32 (≈ 22.1 µM)	
Cc1c2cc3cc1CSC[C@H](NC(=O)[C@@H](CCCCN)NC(=O)[C@H](CC(C)C)NC(=O)[C@H](CC(C)C)NC(=O)[C@@H](CCCCN)NC(=O)[C@@H](CCCCN)NC3=O)C(=O)N[C@@H](CC(C)C)C(=O)N[C@H](CCCCN)C(=O)N[C@H](C(=O)N[C@@H](CC(C)C)C(=O)N[C@@H](CC(C)C)C(N)=O)CSC2 [bp69] (HELM PEPTIDE1{[dK].[dK].L.L.[dK].C.L.[dK].C.L.L.[am]}|CHEM1{[Cc1c(C[*:2])cc(C(=O)[*:1])cc1C[*:3]]}$PEPTIDE1,CHEM1,1:R1-1:R1|PEPTIDE1,CHEM1,6:R3-1:R2|PEPTIDE1,CHEM1,9:R3-1:R3$$$V2.0)	57	48	>32	4 to 8	16 (≈ 11.1 µM)	8 (≈ 5.54 µM)	4 (≈ 2.77 µM)	2 to 4	16 (≈ 11.1 µM)	4 (≈ 2.77 µM)	
